Holding throughout (type): toxicity, cell-based
One series relates to HEK-293T. The series can be described thus: Incucyte cell viability with HEK293T. The following applies: human, 10 µM, compound concentration 10 uM.
In a further series the test system is Fibroblast. The series can be described thus: Incucyte cell viability with human fibroblast. The note with it: 10 µM, compound concentration 10 uM.
The test system of the next series is U2OS. The series can be described thus: Incucyte cell viability with U2OS. The note with it: human, 10 µM, compound concentration 10 uM.
The mark [1] stands for this setting: 0 h, replicate number 1, timepoint 0 hours.
The mark [2] stands for this setting: 0 h, replicate number 2, timepoint 0 hours.
Setting [3] is: 18 h, replicate number 2, timepoint 18 hours.
Where [4] appears, read: 24 h, replicate number 1, timepoint 24 hours.
Setting [5] is: 6 h, replicate number 1, timepoint 6 hours.
[6] abbreviates: 12 h, replicate number 1, timepoint 12 hours.
Setting [7] is: 18 h, replicate number 1, timepoint 18 hours.
Where [8] appears, read: 12 h, replicate number 2, timepoint 12 hours.
[9] abbreviates: 24 h, replicate number 2, timepoint 24 hours.
[10] abbreviates: 6 h, replicate number 2, timepoint 6 hours.
Also: unitless GR value; below 1 slowed growth and below 0 cell loss.

As for `Nc1ncnc2c1ncn2[C@@H]1O[C@H](CO)[C@@H](O)[C@H]1O` [ADENOSINE], the “Growth Rate” value is recorded as -0.6 in the series with HEK-293T (setting [1]); -0.36 with HEK-293T (setting [2]); 0.98 in the series with HEK-293T (setting [3]); 0.79 with HEK-293T (setting [4]); 0.25 with Fibroblast (setting [1]); 0.19 with Fibroblast (setting [2]). Further, the “Growth Rate” value is listed as -0.04 in the series on Fibroblast (setting [5]); 0.59 with Fibroblast (setting [6]); 0.7 with Fibroblast (setting [7]); 0.58 in the series on Fibroblast (setting [4]); 0.54 in the series on U2OS (setting [1]); 0.47 in the series on U2OS (setting [5]). Moreover, the “Growth Rate” value is 0.84 with U2OS (setting [6]) and 0.77 in the series with U2OS (setting [7]).

As to `CCCCCCCCCCCCCCC[C@@H](O)[C@@H](N)COP(=O)(O)O`, the “Growth Rate” value is reported as 0.71 with HEK-293T (setting [2]); 0.25 in the series with HEK-293T (setting [5]); 0.48 in the series on HEK-293T (setting [6]); 0.76 in the series on HEK-293T (setting [8]); 0.51 in the series on HEK-293T (setting [7]); 0.88 with HEK-293T (setting [3]). Moreover, the “Growth Rate” value in the series with HEK-293T (setting [4]) was 0.63; in the series with HEK-293T (setting [9]) it was 0.74; in the series with Fibroblast (setting [2]), 0.12; in the series on Fibroblast (setting [5]), -0.14; in the series with Fibroblast (setting [10]), 0.42; in the series with Fibroblast (setting [6]) it was 0.44. In addition, the “Growth Rate” value with Fibroblast (setting [8]) is 0.66; with Fibroblast (setting [7]), 0.43; in the series with Fibroblast (setting [3]), 0.7; with Fibroblast (setting [4]), 0.23; with Fibroblast (setting [9]), 0.73; in the series on U2OS (setting [6]), 0.64.

Turning to `O=C(O)c1cc2ccccc2c(Cc2c(O)c(C(=O)O)cc3ccccc23)c1O` [PAMOIC ACID], the “Growth Rate” value in the series on HEK-293T (setting [1]) is listed as 0.69; in the series with HEK-293T (setting [2]) it was 0.89; in the series with Fibroblast (setting [1]), -0.13; in the series on Fibroblast (setting [2]) it was 0.41; in the series with Fibroblast (setting [6]) it was 0.52; in the series with Fibroblast (setting [7]), 0.93. Besides, in the series on U2OS (setting [10]), the “Growth Rate” value worked out at 0.75.

`C[C@@H]1C[C@H]2[C@@H]3CCC4=CC(=O)C=C[C@]4(C)[C@@]3(F)[C@@H](O)C[C@]2(C)[C@@]1(O)C(=O)CO` [DEXAMETHASONE]: the “Growth Rate” value in the series on HEK-293T (setting [1]) came to 0.4; with HEK-293T (setting [6]), 0.98; in the series on HEK-293T (setting [7]), 0.86; in the series with HEK-293T (setting [4]), 0.7; in the series on HEK-293T (setting [9]), 0.99; in the series with Fibroblast (setting [1]), 0.73. Besides, the “Growth Rate” value is on record as 0.88 in the series on Fibroblast (setting [5]); 0.07 in the series on U2OS (setting [1]); -1 in the series with U2OS (setting [2]); 0.65 in the series with U2OS (setting [10]); 0.95 in the series on U2OS (setting [3]).

As for `NCCc1cn(S(=O)(=O)c2c(Cl)nc3sccn23)c2ccccc12.O=C(O)C(=O)O`, the “Growth Rate” value in the series with HEK-293T (setting [5]) is listed as -0.34; in the series on HEK-293T (setting [6]) it was 0.22; with HEK-293T (setting [8]), 0.08; in the series on HEK-293T (setting [7]) it was 0.4; in the series with HEK-293T (setting [3]), 0.51; with HEK-293T (setting [4]) it was 0.57. The “Growth Rate” value in the series on HEK-293T (setting [9]) is 0.52; in the series on Fibroblast (setting [5]), -0.77; with Fibroblast (setting [10]) it was -0.79; in the series with Fibroblast (setting [6]), -0.66; in the series on Fibroblast (setting [8]) it was -0.5; in the series on Fibroblast (setting [7]), -0.67. Also, the “Growth Rate” value with Fibroblast (setting [3]) is listed as -0.42; with Fibroblast (setting [4]), -0.67; in the series on Fibroblast (setting [9]) it was -0.31; in the series on U2OS (setting [5]) it was -0.18; with U2OS (setting [10]), 0.34; with U2OS (setting [6]), 0.52. Also, the “Growth Rate” value in the series with U2OS (setting [8]) is 0.36; in the series with U2OS (setting [7]), 0.72; in the series with U2OS (setting [3]), 0.45; in the series with U2OS (setting [4]), 0.87; in the series on U2OS (setting [9]), 0.57.

As for `O=C1NC(Nc2ccccc2)=N/C1=C\c1ccc2c(c1)OCO2`, the “Growth Rate” value in the series on HEK-293T (setting [1]) stood at 0.84; in the series with HEK-293T (setting [2]), 0.94; with HEK-293T (setting [5]), 0.37; in the series on HEK-293T (setting [10]) it was 0.13; in the series on HEK-293T (setting [6]) it was 0.75; in the series on HEK-293T (setting [8]), 0.51. The “Growth Rate” value turned out to be 0.75 with HEK-293T (setting [7]); 0.58 in the series on HEK-293T (setting [3]); 0.82 with HEK-293T (setting [4]); 0.78 with HEK-293T (setting [9]); 0.56 in the series on Fibroblast (setting [2]); 0.26 with Fibroblast (setting [5]). Moreover, the “Growth Rate” value with Fibroblast (setting [6]) is reported as 0.74; in the series on U2OS (setting [2]) it was -1; in the series on U2OS (setting [5]), -0.77; in the series on U2OS (setting [10]), 0.8; with U2OS (setting [6]) it was 0.12; with U2OS (setting [8]) it was 0.66. Further, the “Growth Rate” value in the series with U2OS (setting [7]) was found to be 0.39; in the series on U2OS (setting [3]), 0.59; with U2OS (setting [4]), 0.59; in the series with U2OS (setting [9]) it was 0.63.

With `Cl.O=C1CC[C@@]2(O)[C@H]3Cc4ccc(O)c5c4[C@@]2(CCN3CC2CC2)[C@H]1O5` [NALTREXONE HYDROCHLORIDE], the “Growth Rate” value with HEK-293T (setting [2]) came to 0.83; with HEK-293T (setting [10]), 0.84; in the series with Fibroblast (setting [1]), 0.67; in the series on Fibroblast (setting [2]), 0.63; with Fibroblast (setting [5]), 0.38; in the series on Fibroblast (setting [4]), 0.6. Moreover, the “Growth Rate” value is listed as 0.86 in the series on U2OS (setting [1]); -1 with U2OS (setting [2]); -0.02 with U2OS (setting [5]); 0.81 in the series on U2OS (setting [10]); 0.39 in the series with U2OS (setting [6]); 0.91 in the series on U2OS (setting [8]). In addition, the results for the “Growth Rate” value with U2OS (setting [7]) and with U2OS (setting [4]) were 0.67 and 0.83, respectively.

Consider `CN1CCN(c2cc(-c3ccccc3)nc(N)n2)CC1`, for which the “Growth Rate” value in the series on HEK-293T (setting [10]) worked out at 0.96; with Fibroblast (setting [1]) it was 0.2; in the series on Fibroblast (setting [2]), 0.38; with Fibroblast (setting [6]) it was 0.86; in the series on Fibroblast (setting [7]), 0.76; with Fibroblast (setting [4]) it was 0.83. Also, the “Growth Rate” value is on record as 0.75 in the series on U2OS (setting [1]), 0.59 with U2OS (setting [10]), 0.96 with U2OS (setting [8]) and 0.97 with U2OS (setting [7]).

Regarding `O=C(NCCO)c1cccc(-c2cc(Nc3ccc(OC(F)(F)F)cc3)ncn2)c1`, the “Growth Rate” value is reported as -0.41 in the series on HEK-293T (setting [5]); -0.4 in the series on HEK-293T (setting [10]); -0.19 in the series with HEK-293T (setting [6]); -0.13 with HEK-293T (setting [8]); 0.05 with HEK-293T (setting [7]); 0.17 with HEK-293T (setting [3]). Further, the “Growth Rate” value in the series with HEK-293T (setting [4]) is listed as 0.15; with HEK-293T (setting [9]) it was 0.26; in the series with Fibroblast (setting [2]) it was 0.6; in the series on Fibroblast (setting [5]) it was -0.91; with Fibroblast (setting [6]), -0.72; in the series on Fibroblast (setting [8]) it was 0.04. In addition, the “Growth Rate” value with Fibroblast (setting [7]) is on record as -0.61; in the series on Fibroblast (setting [3]) it was 0.03; with Fibroblast (setting [4]), -0.55; with Fibroblast (setting [9]), 0.06; with U2OS (setting [1]), -0.12; in the series on U2OS (setting [2]), 0.42. For the same molecule, the “Growth Rate” value in the series with U2OS (setting [5]) is 0.49; with U2OS (setting [10]), 1; in the series with U2OS (setting [6]), 0.52; in the series with U2OS (setting [8]) it was 0.83; in the series on U2OS (setting [7]), 0.47; in the series on U2OS (setting [3]) it was 0.99. In addition, the “Growth Rate” value in the series with U2OS (setting [4]) is listed as 0.79; with U2OS (setting [9]), 0.91.

In the case of `CCCN1CCO[C@H]2c3cc(O)ccc3OC[C@@H]21.Cl`, the “Growth Rate” value in the series with HEK-293T (setting [1]) is 0.72; in the series on HEK-293T (setting [2]) it was -0.13; in the series with HEK-293T (setting [9]) it was 0.96; in the series on Fibroblast (setting [1]), 0.77; with Fibroblast (setting [2]), 0.29; with Fibroblast (setting [6]), 0.98. Also, the “Growth Rate” value in the series on Fibroblast (setting [7]) was found to be 0.72; with Fibroblast (setting [4]), 0.8; with U2OS (setting [1]), 0.55; with U2OS (setting [5]), 0.6; in the series on U2OS (setting [6]) it was 0.93; in the series on U2OS (setting [7]) it was 0.92.

Consider `CC(C)CC(=O)Nc1cncc(-c2ccc3[nH]nc(-c4nc5c(-c6cccc(F)c6)cncc5[nH]4)c3c2)c1` [LORECIVIVINT], for which the “Growth Rate” value in the series on HEK-293T (setting [5]) was -0.81; in the series with HEK-293T (setting [10]), -0.95; in the series with HEK-293T (setting [6]) it was -0.55; in the series on HEK-293T (setting [8]) it was -0.81; with HEK-293T (setting [7]), -0.48; with HEK-293T (setting [3]) it was -0.64. Also, the “Growth Rate” value is -0.44 in the series with HEK-293T (setting [4]); -0.57 with HEK-293T (setting [9]); 0.49 with Fibroblast (setting [2]); -0.2 with Fibroblast (setting [5]); -0.06 with Fibroblast (setting [10]); 0.36 with Fibroblast (setting [6]). The “Growth Rate” value in the series with Fibroblast (setting [8]) was -0.03; in the series with Fibroblast (setting [7]), 0.73; in the series with Fibroblast (setting [3]), 0.01; with Fibroblast (setting [4]), 0.43; with Fibroblast (setting [9]), -0.02; with U2OS (setting [1]), -0.33. The “Growth Rate” value in the series with U2OS (setting [2]) is listed as -0.94; in the series on U2OS (setting [5]), -0.82; with U2OS (setting [10]) it was -0.16; with U2OS (setting [6]) it was -0.56; in the series on U2OS (setting [8]), 0.32; in the series on U2OS (setting [7]), -0.16. For the same molecule, the “Growth Rate” value with U2OS (setting [3]) is listed as 0.98; in the series on U2OS (setting [4]), 0.71.

For the origin of these results see ChEMBL document CHEMBL5058564, “EUbOPEN Chemogenomics Library 2 (Incucyte)” (2022).
